Measured values taken from patent US12240815B2, “Potent and selective human neuronal nitric oxide synthase inhibitors” (Northwestern University, priority 2020, dated 2025).
Structures can show the parent of a compound that is named as a salt. Where two headings read alike, the source gives them in different places.

How the values were obtained:
rat nNOS = rat nNOS (Rattus norvegicus, UniProt P29476); experiment: NO hemoglobin capture assay, rat nNOS; assay type: biochemical; conditions: for Selectivity n/i: nNOS versus iNOS
Sequence of rat nNOS (P29476 whole entry): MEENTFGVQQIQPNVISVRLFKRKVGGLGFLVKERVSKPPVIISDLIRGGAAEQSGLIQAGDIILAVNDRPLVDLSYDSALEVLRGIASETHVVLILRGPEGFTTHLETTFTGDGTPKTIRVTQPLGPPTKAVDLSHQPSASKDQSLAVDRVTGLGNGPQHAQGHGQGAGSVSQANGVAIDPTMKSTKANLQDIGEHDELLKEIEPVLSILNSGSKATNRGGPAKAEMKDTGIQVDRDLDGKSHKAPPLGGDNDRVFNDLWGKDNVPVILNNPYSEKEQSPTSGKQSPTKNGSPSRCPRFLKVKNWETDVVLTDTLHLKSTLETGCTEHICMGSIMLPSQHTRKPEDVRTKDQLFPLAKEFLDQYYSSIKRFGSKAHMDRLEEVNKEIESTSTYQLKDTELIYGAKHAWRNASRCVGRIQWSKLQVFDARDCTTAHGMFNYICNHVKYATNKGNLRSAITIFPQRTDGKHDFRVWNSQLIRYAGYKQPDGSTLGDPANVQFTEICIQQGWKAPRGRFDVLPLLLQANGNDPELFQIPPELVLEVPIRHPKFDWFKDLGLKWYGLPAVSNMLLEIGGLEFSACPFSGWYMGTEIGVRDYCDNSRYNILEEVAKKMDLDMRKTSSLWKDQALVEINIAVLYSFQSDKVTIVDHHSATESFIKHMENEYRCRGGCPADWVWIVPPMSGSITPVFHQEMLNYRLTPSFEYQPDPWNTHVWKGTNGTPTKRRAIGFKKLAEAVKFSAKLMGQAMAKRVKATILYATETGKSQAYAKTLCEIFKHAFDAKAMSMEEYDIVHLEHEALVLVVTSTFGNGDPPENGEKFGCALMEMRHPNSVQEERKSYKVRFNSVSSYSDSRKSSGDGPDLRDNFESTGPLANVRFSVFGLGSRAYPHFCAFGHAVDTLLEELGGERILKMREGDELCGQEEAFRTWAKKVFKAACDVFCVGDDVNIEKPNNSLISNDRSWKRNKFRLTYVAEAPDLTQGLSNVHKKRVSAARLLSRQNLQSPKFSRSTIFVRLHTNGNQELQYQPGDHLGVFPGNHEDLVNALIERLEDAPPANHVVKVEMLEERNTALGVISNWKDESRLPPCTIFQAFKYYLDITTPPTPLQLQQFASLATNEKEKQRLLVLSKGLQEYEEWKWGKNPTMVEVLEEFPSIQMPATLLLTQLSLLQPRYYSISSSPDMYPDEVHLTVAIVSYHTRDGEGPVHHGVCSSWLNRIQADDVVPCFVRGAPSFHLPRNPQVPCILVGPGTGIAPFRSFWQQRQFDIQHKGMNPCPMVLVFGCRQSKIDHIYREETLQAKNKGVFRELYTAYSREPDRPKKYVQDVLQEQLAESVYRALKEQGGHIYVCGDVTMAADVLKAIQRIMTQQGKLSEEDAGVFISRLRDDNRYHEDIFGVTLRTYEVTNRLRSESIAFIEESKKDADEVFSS

murine macrophage iNOS = murine macrophage iNOS (Mus musculus, UniProt P29477); experiment: NO hemoglobin capture assay, murine iNOS; assay type: biochemical
human eNOS = human eNOS (Homo sapiens, UniProt P29474); experiment: NO hemoglobin capture assay, human eNOS
human iNOS = human iNOS (Homo sapiens, UniProt P35228); experiment: NO hemoglobin capture assay, human iNOS
human nNOS = human nNOS (Homo sapiens, UniProt P29475); experiment: NO hemoglobin capture assay, human nNOS; assay type: biochemical; conditions: for Selectivity Human n/e: human nNOS versus human eNOS
Sequence of human nNOS (P29475 whole entry): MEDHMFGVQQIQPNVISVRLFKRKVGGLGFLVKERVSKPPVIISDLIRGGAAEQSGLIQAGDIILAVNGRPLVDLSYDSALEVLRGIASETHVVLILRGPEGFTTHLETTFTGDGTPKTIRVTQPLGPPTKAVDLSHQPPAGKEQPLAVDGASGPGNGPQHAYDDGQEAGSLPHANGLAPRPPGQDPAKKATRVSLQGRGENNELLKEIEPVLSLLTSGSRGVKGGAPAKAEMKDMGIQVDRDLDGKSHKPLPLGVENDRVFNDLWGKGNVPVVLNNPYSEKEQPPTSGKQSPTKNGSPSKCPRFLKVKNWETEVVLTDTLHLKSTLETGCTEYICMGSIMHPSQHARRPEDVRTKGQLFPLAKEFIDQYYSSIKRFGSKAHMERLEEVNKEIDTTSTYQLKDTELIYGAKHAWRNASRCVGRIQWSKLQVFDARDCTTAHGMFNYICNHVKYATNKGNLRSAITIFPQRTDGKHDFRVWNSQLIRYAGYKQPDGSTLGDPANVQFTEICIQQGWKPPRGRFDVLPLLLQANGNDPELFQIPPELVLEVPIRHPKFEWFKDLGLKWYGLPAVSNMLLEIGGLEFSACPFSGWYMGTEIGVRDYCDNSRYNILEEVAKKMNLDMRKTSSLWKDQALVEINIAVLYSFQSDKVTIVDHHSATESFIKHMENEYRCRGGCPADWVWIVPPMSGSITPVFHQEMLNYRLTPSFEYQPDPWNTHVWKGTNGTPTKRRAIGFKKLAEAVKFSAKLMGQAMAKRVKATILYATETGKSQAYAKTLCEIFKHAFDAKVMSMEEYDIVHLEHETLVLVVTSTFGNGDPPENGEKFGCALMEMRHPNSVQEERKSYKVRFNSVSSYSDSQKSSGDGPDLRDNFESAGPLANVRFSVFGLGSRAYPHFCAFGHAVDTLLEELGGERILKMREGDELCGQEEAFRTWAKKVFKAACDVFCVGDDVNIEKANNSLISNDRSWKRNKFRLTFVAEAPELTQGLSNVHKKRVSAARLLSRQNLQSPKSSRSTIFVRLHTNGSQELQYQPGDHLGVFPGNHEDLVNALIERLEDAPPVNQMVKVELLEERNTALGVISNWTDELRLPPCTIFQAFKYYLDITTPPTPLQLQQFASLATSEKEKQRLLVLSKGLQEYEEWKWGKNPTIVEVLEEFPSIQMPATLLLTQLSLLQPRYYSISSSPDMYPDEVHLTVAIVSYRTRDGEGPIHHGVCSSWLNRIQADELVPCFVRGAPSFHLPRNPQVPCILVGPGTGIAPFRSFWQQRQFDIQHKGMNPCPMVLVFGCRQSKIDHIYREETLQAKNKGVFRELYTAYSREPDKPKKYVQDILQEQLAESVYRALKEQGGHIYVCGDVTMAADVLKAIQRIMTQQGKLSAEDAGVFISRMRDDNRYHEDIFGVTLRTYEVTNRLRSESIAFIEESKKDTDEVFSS

PAMPA-BBB assay = conditions: for Pe PAMPA-BBB: Table 4; for Papp at 17 h, 200 μM: PAMPA, pH 7.5
iNOS = iNOS (Mus musculus, UniProt P29477); experiment: NO hemoglobin capture assay, iNOS (Table 4, species not given)
[1] = pH 7.4, read-out: Ki human nNOS
[2] = Table 1, Ki from IC50 by Cheng-Prusoff, 10 μM L-Arg, pH 7.4, 37° C.
[3] = Table 4, read-out: Ki Human nNOS
[4] = Table 5, Ki from IC50 by Cheng-Prusoff, 8 to 11 concentrations, read-out: Ki RnNOS
[5] = Table 5, Ki from IC50 by Cheng-Prusoff, 8 to 11 concentrations, read-out: Ki HnNOS
[6] = read-out: Ki HiNOS, Table 5, Ki from IC50 by Cheng-Prusoff, 8 to 11 concentrations

Cc1cc(N)nc(CCc2cc(CCCN(C)C)cc(F)c2F)c1 [Compound 10, 6-(5-(3-(dimethylamino)propyl)-2,3-difluorophenethyl)-4-methylpyridin-2-amine]
Ki (rat nNOS; pH 7.4, read-out: Ki rat nNOS): 19 nM
Ki (murine macrophage iNOS; pH 7.4): 823 nM
Ki (human eNOS; read-out: Ki human eNOS): 35000 nM
Ki (human iNOS; read-out: Ki human iNOS): 1310 nM

Cc1cc(N)nc(CCc2c(F)c(F)cc(CCCN(C)C)c2F)c1 [Compound 13, 6-(3-(3-(dimethylamino)propyl)-2,5,6-trifluorophenethyl)-4-methylpyridin-2-amine]
Ki (rat nNOS; pH 7.4, read-out: Ki rat nNOS): 47 nM
Ki (human nNOS; [1]): 58 nM
Ki (murine macrophage iNOS; [2]): 3260 nM

CNC/C=C/c1cc(F)cc(CCc2cc(C)cc(N)n2)c1 [Compound 48]
Selectivity n/i (rat nNOS; Table 4): 130
Ki (rat nNOS; Table 4, read-out: Ki Rat nNOS): 21 nM
Selectivity nNOS human/rat (human nNOS; Table 4): 1.3
Selectivity Human n/e (human nNOS; Table 4): 721
Ki (human nNOS; [3]): 28 nM
Pe PAMPA-BBB (PAMPA-BBB assay): 10.30 ± 0.02 10^-6 cm/s
Ki (human eNOS): 20200 nM
Ki (iNOS): 2730 nM

Cc1cc(N)nc(CCc2cc(CCN(C)C)cc(F)c2F)c1 [Compound 58, 6-(5-(2-(Dimethylamino)ethyl)-2,3-difluorophenethyl)-4-methylpyridin-2-amine hydrochloride]
Pe PAMPA-BBB (PAMPA-BBB assay): 19.5 ± 1.4 10^-6 cm/s
Ki (iNOS): 1050 nM

Cc1cc(N)nc(CCc2cc(CC[C@H]3CCCN3C)cc(F)c2F)c1 [Compound 18, (S)-6-(2,3-difluoro-5-(2-(1-methylpyrrolidin-2-yl)ethyl)phenethyl)-4-methylpyridin-2-amine]
Papp at 17 h, 200 μM (PAMPA-BBB assay): ~18 ×10⁻⁶ cm/s

CNCC#Cc1cc(F)c(F)c(CCc2cc(C)cc(N)n2)c1F [Compound 50]
Selectivity n/i (rat nNOS; Table 4): 48
Ki (rat nNOS; Table 4, read-out: Ki Rat nNOS): 119 nM
Selectivity nNOS human/rat (human nNOS; Table 4): 1.4
Selectivity Human n/e (human nNOS; Table 4): 157
Ki (human nNOS; [3]): 168 nM
Pe PAMPA-BBB (PAMPA-BBB assay): 19.10 ± 0.5 10^-6 cm/s
Ki (human eNOS): 26500 nM
Ki (iNOS): 5780 nM

CNCC#Cc1cc(F)cc(CCc2cc(C)cc(N)n2)c1 [Compound 2, 6-(3-fluoro-5-(3-(methylamino)prop-1-yn-1-yl)phenethyl)-4-methylpyridin-2-amine]
Ki (rat nNOS; pH 7.4, read-out: Ki rat nNOS): 32 nM
Ki (human nNOS; [1]): 58 nM
Ki (murine macrophage iNOS; [2]): 7620 nM

Cc1cc(N)nc(CCc2c(F)c(F)cc(CC[C@@H]3CCCN3C)c2F)c1 [Compound 51]
Selectivity n/i (rat nNOS; Table 4): 88
Ki (rat nNOS; Table 4, read-out: Ki Rat nNOS): 67 nM
Selectivity nNOS human/rat (human nNOS; Table 4): 1.7
Selectivity Human n/e (human nNOS; Table 4): 266
Ki (human nNOS; [3]): 112 nM
Pe PAMPA-BBB (PAMPA-BBB assay): 20 ± 0.85 10^-6 cm/s
Ki (human eNOS): 29800 nM
Ki (iNOS): 5880 nM

Cc1cc(N)nc(CCc2cc(CN(C)C)cc(F)c2F)c1 [Compound 54]
Ki (iNOS): 76 nM

Cc1cc(N)nc(CCc2cc(F)cc(C#CCN(C)C)c2)c1 [Compound 3, 6-(3-(3-(dimethylamino)prop-1-yn-1-yl)-5-fluorophenethyl)-4-methylpyridin-2-amine]
drop in rat nNOS potency compared to 1 (rat nNOS): more than 2 fold
Ki (rat nNOS; pH 7.4, read-out: Ki rat nNOS): 58 nM
drop in human nNOS potency compared to 1 (human nNOS): > 4 fold
Ki (human nNOS; [1]): 124 nM
Ki (murine macrophage iNOS; [2]): 4890 nM

Cc1cc(N)nc(C#CCN2CCN(C)CC2)c1 [Compound 73, 4-Methyl-6-(3-(4-methylpiperazin-1-yl)prop-1-yn-1-yl)pyridin-2-amine]
Ki (rat nNOS; [4]): 947 nM
Selectivity hn/rn (human nNOS; Table 5): 2.2
Ki (human nNOS; [5]): 2120 nM
Ki (human iNOS; [6]): 114000 nM

CCO[C@@H]1C[C@H](CCc2cc(F)c(F)c(CCc3cc(C)cc(N)n3)c2)N(C)C1 [Compound 20, 6-(5-(2-((2S,4R)-4-ethoxy-1-methylpyrrolidin-2-yl)ethyl)-2,3-difluorophenethyl)-4-methylpyridin-2-amine]
Ki (rat nNOS; pH 7.4, read-out: Ki rat nNOS): 55 nM
Ki (human nNOS; [1]): 87 nM
Ki (murine macrophage iNOS; [2]): 4500 nM

Cc1cc(N)nc(CCc2cc(F)cc(CC[C@@H]3CCCN3C)c2)c1 [Compound 5, (R)-6-(3-fluoro-5-(2-(1-methylpyrrolidin-2-yl)ethyl)phenethyl)-4-methylpyridin-2-amine]
Ki (rat nNOS; pH 7.4, read-out: Ki rat nNOS): 26 nM
Ki (human nNOS; [1]): 52 nM
Ki (murine macrophage iNOS; [2]): 2910 nM

Cc1cc(N)nc(CCCN(C)C)c1 [Compound 69, 6-(3-(Dimethylamino)propyl)-4-methylpyridin-2-amine hydrochloride]
Ki (human nNOS; [5]): 29 nM
Ki (human eNOS): 537 nM
Ki (human iNOS; [6]): 2830 nM

Cc1cc(N)nc(CCc2c(F)c(F)cc(CC[C@H]3CCCN3C)c2F)c1 [Compound 52]
Selectivity n/i (rat nNOS; Table 4): 108
Ki (rat nNOS; Table 4, read-out: Ki Rat nNOS): 93 nM
Selectivity nNOS human/rat (human nNOS; Table 4): 1.62
Selectivity Human n/e (human nNOS; Table 4): 196
Ki (human nNOS; [3]): 151 nM
Pe PAMPA-BBB (PAMPA-BBB assay): 20.3 ± 0.16 10^-6 cm/s
Ki (human eNOS): 27300 nM
Ki (iNOS): 10000 nM

Cc1cc(N)nc(CCc2cc(F)cc(CC[C@@H]3C[C@H](F)CN3)c2)c1 [Compound 8, 6-(3-fluoro-5-(2-((2R,4S)-4-fluoropyrrolidin-2-yl)ethyl)phenethyl)-4-methylpyridin-2-amine]
Ki (rat nNOS; pH 7.4, read-out: Ki rat nNOS): 65 nM
drop in human nNOS potency compared to 1 (human nNOS): 4 fold
Ki (human nNOS; [1]): 129 nM
Ki (murine macrophage iNOS; [2]): 4540 nM

CNCc1ccc2ncc(CCc3cc(C)cc(N)n3)cc2c1 [Compound 49]
Selectivity n/i (rat nNOS; Table 4): 99
Ki (rat nNOS; Table 4, read-out: Ki Rat nNOS): 38 nM
Selectivity nNOS human/rat (human nNOS; Table 4): 0.9
Selectivity Human n/e (human nNOS; Table 4): 614
Ki (human nNOS; [3]): 36 nM
Pe PAMPA-BBB (PAMPA-BBB assay): No permeability
Ki (human eNOS): 22100 nM
Ki (iNOS): 3760 nM

Cc1cc(N)nc(CCc2cc(F)cc(CCCN(C)C)c2F)c1 [Compound 12, 6-(3-(3-(dimethylamino)propyl)-2,5-difluorophenethyl)-4-methylpyridin-2-amine]
Ki (rat nNOS; pH 7.4, read-out: Ki rat nNOS): 79 nM
Ki (human nNOS; [1]): 157 nM
Ki (murine macrophage iNOS; [2]): 1950 nM

Cc1cc(N)nc(CCc2cc(CC[C@@H]3CCCN3C)cc(F)c2F)c1 [Compound 17, (R)-6-(2,3-difluoro-5-(2-(1-methylpyrrolidin-2-yl)ethyl)phenethyl)-4-methylpyridin-2-amine]
Papp at 17 h, 200 μM (PAMPA-BBB assay): ~18 ×10⁻⁶ cm/s

CNCCc1cc(F)c(F)c(CCc2cc(C)cc(N)n2)c1 [Compound 60, 6-(2,3-Difluoro-5-(2-(methylamino)ethyl)phenethyl)-4-methylpyridin-2-amine]
Ki (rat nNOS): 28 nM
Ki (human nNOS): 24 nM
Selectivity hn/hi (human nNOS; Table 5): 72
Selectivity hn/rn (human nNOS; Table 5): 1.2
Ki (human iNOS): 1750 nM

Cc1cc(N)nc(CCc2cc(C#CCN(C)C)cc(F)c2F)c1 [Compound 16, 6-(5-(3-(dimethylamino)prop-1-yn-1-yl)-2,3-difluorophenethyl)-4-methylpyridin-2-amine]
Ki (rat nNOS; pH 7.4, read-out: Ki rat nNOS): 81 nM
Ki (human nNOS; [1]): 84 nM
Ki (murine macrophage iNOS; [2]): 4410 nM

Nc1cc(Cl)cc(OCc2cccc(F)c2F)n1 [Compound 68, 4-Chloro-6-((2,3-difluorobenzyl)oxy)pyridin-2-aminehydrochloride]
Ki (rat nNOS; read-out: Ki RnNOS): 102000 nM

Cc1cc(N)nc(CCc2cc(CC[C@H]3COCCN3C)cc(F)c2F)c1 [Compound 19, (S)-6-(2,3-difluoro-5-(2-(4-methylmorpholin-3-yl)ethyl)phenethyl)-4-methylpyridin-2-amine]
Ki (rat nNOS; pH 7.4, read-out: Ki rat nNOS): 62 nM
Ki (human nNOS; [1]): 89 nM
Ki (murine macrophage iNOS; [2]): 3450 nM

CNC/C=C\c1cc(F)cc(CCc2cc(C)cc(N)n2)c1 [Compound 47]
Selectivity n/i (rat nNOS; Table 4): 73
Ki (rat nNOS; Table 4, read-out: Ki Rat nNOS): 31 nM
Selectivity nNOS human/rat (human nNOS; Table 4): 2.5
Selectivity Human n/e (human nNOS; Table 4): 320
Ki (human nNOS; [3]): 77 nM
Pe PAMPA-BBB (PAMPA-BBB assay): 10.92 ± 0.02 10^-6 cm/s
Ki (human eNOS): 24700 nM
Ki (iNOS): 2280 nM

Cc1cc(N)nc(CCCN2CCN(C)CC2)c1 [Compound 72, 4-Methyl-6-(3-(4-methylpiperazin-1-yl)propyl)pyridin-2-amine]
Ki (rat nNOS; read-out: Ki RnNOS): 55 nM
Selectivity hn/rn (human nNOS; Table 5): 3.0
Ki (human nNOS; [5]): 171 nM
Ki (human iNOS; [6]): 10200 nM

CNCC#Cc1cc(C)cc(N)n1 [Compound 71, 4-Methyl-6-(3-(methylamino)prop-1-yn-1-yl)pyridin-2-amine hydrochloride]
Ki (rat nNOS; [4]): 88 nM
Selectivity hn/rn (human nNOS; Table 5): 1.0
Ki (human nNOS; [5]): 92 nM
Ki (human iNOS; [6]): 3580 nM

CN(C)CCc1cc(F)c(F)c(CCc2cccc(N)n2)c1 [Compound 59, 6-(5-(2-(Dimethylamino)ethyl)-2,3-difluorophenethyl)pyridin-2-amine hydrochloride]
Ki (rat nNOS; Ki RnNOS, Table 5, Ki from IC50 by Cheng-Prusoff, 8 to 11 concentrations): 940 nM
Ki (human nNOS): 3160 nM

CN(C)CCc1cc(F)c(F)c(CCc2cc(C(F)(F)F)cc(N)n2)c1 [Compound 64, 6-(5-(2-(Dimethylamino)ethyl)-2,3-difluorophenethyl)-4-(trifluoromethyl)pyridin-2-amine]
Ki (human eNOS): 102000 nM

Cc1cc(N)nc(CCc2cc(F)cc(CC[C@H]3CCCN3C)c2)c1 [Compound 7, (S)-6-(3-fluoro-5-(2-(1-methylpyrrolidin-2-yl)ethyl)phenethyl)-4-methylpyridin-2-amine]
Ki (rat nNOS; pH 7.4, read-out: Ki rat nNOS): 33 nM
Ki (human nNOS; [1]): 84 nM
Ki (murine macrophage iNOS; [2]): 3390 nM

Cc1cc(N)nc(CCc2cc(F)cc(CC[C@@H]3C[C@H](F)CN3C)c2)c1 [Compound 9, 6-(3-fluoro-5-(2-((2R,4S)-4-fluoro-1-methylpyrrolidin-2-yl)ethyl)phenethyl)-4-methylpyridin-2-amine]
Ki (murine macrophage iNOS; [2]): 5010 nM

CNCCCc1cc(C)cc(N)n1 [Compound 70, 4-Methyl-6-(3-(methylamino)propyl)pyridin-2-amine hydrochloride]
Ki (rat nNOS; [4]): 29 nM
Selectivity hn/rn (human nNOS; Table 5): 1.4
Ki (human nNOS; [5]): 21 nM
Ki (human iNOS; [6]): 669 nM
